Assay results reported in PubChem BioAssay (NCI).
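The compound was tested at five concentrations on cells cultured in 96-well plates, with a 48-hour exposure period. TGI denotes the concentration required for complete inhibition of growth.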

Assays:
Assay in all cases: inhibition of tumour cell growth, NCI panel, 48 h
786-0 renal = tested on: 786-0 renal
A498 renal = tested on: A498 renal
A549 NSCLC = tested on: A549 NSCLC
ACHN renal = tested on: ACHN renal
BT-549 breast = tested on: BT-549 breast
CAKI-1 renal = tested on: CAKI-1 renal
CCRF-CEM leukemia = tested on: CCRF-CEM leukemia
COLO 205 colon = tested on: COLO 205 colon
DU-145 prostate = tested on: DU-145 prostate
EKVX NSCLC = tested on: EKVX NSCLC
HCC-2998 colon = tested on: HCC-2998 colon
HCT-116 colon = tested on: HCT-116 colon
HCT-15 colon = tested on: HCT-15 colon
HL-60(TB) leukemia = tested on: HL-60(TB) leukemia
HOP-62 NSCLC = tested on: HOP-62 NSCLC
HOP-92 NSCLC = tested on: HOP-92 NSCLC
HS 578T breast = tested on: HS 578T breast
HT29 colon = tested on: HT29 colon
IGROV1 ovarian = tested on: IGROV1 ovarian
K-562 leukemia = tested on: K-562 leukemia
KM12 colon = tested on: KM12 colon
LOX IMVI melanoma = tested on: LOX IMVI melanoma
M14 melanoma = tested on: M14 melanoma
MALME-3M melanoma = tested on: MALME-3M melanoma
MCF7 breast = tested on: MCF7 breast
MDA-MB-231 breast = tested on: MDA-MB-231 breast
MDA-MB-435 = tested on: MDA-MB-435
MDA-N = tested on: MDA-N
MOLT-4 leukemia = tested on: MOLT-4 leukemia
NCI-H226 lung = tested on: NCI-H226 lung
NCI-H23 lung = tested on: NCI-H23 lung
NCI-H460 lung = tested on: NCI-H460 lung
NCI-H522 lung = tested on: NCI-H522 lung
NCI/ADR-RES ovarian = tested on: NCI/ADR-RES ovarian
OVCAR-3 ovarian = tested on: OVCAR-3 ovarian
OVCAR-4 ovarian = tested on: OVCAR-4 ovarian
OVCAR-5 ovarian = tested on: OVCAR-5 ovarian
OVCAR-8 ovarian = tested on: OVCAR-8 ovarian
PC-3 prostate = tested on: PC-3 prostate
RPMI-8226 leukemia = tested on: RPMI-8226 leukemia
RXF 393 renal = tested on: RXF 393 renal
SF-268 CNS = tested on: SF-268 CNS
SF-295 CNS = tested on: SF-295 CNS
SF-539 CNS = tested on: SF-539 CNS
SK-MEL-2 melanoma = tested on: SK-MEL-2 melanoma
SK-MEL-28 melanoma = tested on: SK-MEL-28 melanoma
SK-MEL-5 melanoma = tested on: SK-MEL-5 melanoma
SK-OV-3 ovarian = tested on: SK-OV-3 ovarian
SN12C renal = tested on: SN12C renal
SNB-19 CNS = tested on: SNB-19 CNS
SNB-75 CNS = tested on: SNB-75 CNS
SR leukemia = tested on: SR leukemia
SW-620 colon = tested on: SW-620 colon
T-47D breast = tested on: T-47D breast
TK-10 renal = tested on: TK-10 renal
U251 CNS = tested on: U251 CNS
UACC-257 melanoma = tested on: UACC-257 melanoma
UACC-62 melanoma = tested on: UACC-62 melanoma
UO-31 renal = tested on: UO-31 renal

Structure (SMILES): CCOC(=O)/C(SC#N)=C(/N)N1CCCC1
- TGI (786-0 renal): > 100 µM
- TGI (A498 renal): > 100 µM
- TGI (A549 NSCLC): > 100 µM
- TGI (ACHN renal): > 100 µM
- TGI (BT-549 breast): > 100 µM
- TGI (CAKI-1 renal): > 100 µM
- TGI (CCRF-CEM leukemia): > 100 µM
- TGI (COLO 205 colon): > 100 µM
- TGI (DU-145 prostate): > 100 µM
- TGI (EKVX NSCLC): > 100 µM
- TGI (HCC-2998 colon): > 100 µM
- TGI (HCT-116 colon): > 100 µM
- TGI (HCT-15 colon): > 100 µM
- TGI (HL-60(TB) leukemia): > 100 µM
- TGI (HOP-62 NSCLC): > 100 µM
- TGI (HOP-92 NSCLC): > 100 µM
- TGI (HS 578T breast): > 100 µM
- TGI (HT29 colon): > 100 µM
- TGI (IGROV1 ovarian): > 100 µM
- TGI (K-562 leukemia): > 100 µM
- TGI (KM12 colon): > 100 µM
- TGI (LOX IMVI melanoma): > 100 µM
- TGI (M14 melanoma): > 100 µM
- TGI (MALME-3M melanoma): > 100 µM
- TGI (MCF7 breast): > 100 µM
- TGI (MDA-MB-231 breast): > 100 µM
- TGI (MDA-MB-435): > 100 µM
- TGI (MDA-N): > 100 µM
- TGI (MOLT-4 leukemia): > 100 µM
- TGI (NCI-H226 lung): > 100 µM
- TGI (NCI-H23 lung): > 100 µM
- TGI (NCI-H460 lung): > 100 µM
- TGI (NCI-H522 lung): > 100 µM
- TGI (NCI/ADR-RES ovarian): > 100 µM
- TGI (OVCAR-3 ovarian): > 100 µM
- TGI (OVCAR-4 ovarian): > 100 µM
- TGI (OVCAR-5 ovarian): > 100 µM
- TGI (OVCAR-8 ovarian): > 100 µM
- TGI (PC-3 prostate): > 100 µM
- TGI (RPMI-8226 leukemia): > 100 µM
- TGI (RXF 393 renal): > 100 µM
- TGI (SF-268 CNS): > 100 µM
- TGI (SF-295 CNS): > 100 µM
- TGI (SF-539 CNS): > 100 µM
- TGI (SK-MEL-2 melanoma): > 100 µM
- TGI (SK-MEL-28 melanoma): > 100 µM
- TGI (SK-MEL-5 melanoma): > 100 µM
- TGI (SK-OV-3 ovarian): > 100 µM
- TGI (SN12C renal): > 100 µM
- TGI (SNB-19 CNS): > 100 µM
- TGI (SNB-75 CNS): > 100 µM
- TGI (SR leukemia): > 100 µM
- TGI (SW-620 colon): > 100 µM
- TGI (T-47D breast): > 100 µM
- TGI (TK-10 renal): > 100 µM
- TGI (U251 CNS): > 100 µM
- TGI (UACC-257 melanoma): > 100 µM
- TGI (UACC-62 melanoma): > 100 µM
- TGI (UO-31 renal): > 100 µM

Structure (SMILES): COc1ccc(Oc2ccc3cc4c(cc3c2O)OCO4)c2cc(C)oc12
- TGI (786-0 renal): > 100 µM
- TGI (A498 renal): > 100 µM
- TGI (A549 NSCLC): > 100 µM
- TGI (ACHN renal): > 100 µM
- TGI (BT-549 breast): 71.4 µM
- TGI (CAKI-1 renal): > 100 µM
- TGI (CCRF-CEM leukemia): 89.2 µM
- TGI (COLO 205 colon): 72.3 µM
- TGI (DU-145 prostate): > 100 µM
- TGI (EKVX NSCLC): > 100 µM
- TGI (HCC-2998 colon): 49.8 µM
- TGI (HCT-116 colon): > 100 µM
- TGI (HCT-15 colon): > 100 µM
- TGI (HL-60(TB) leukemia): 83.9 µM
- TGI (HOP-62 NSCLC): > 100 µM
- TGI (HOP-92 NSCLC): 70.1 µM
- TGI (HS 578T breast): > 100 µM
- TGI (HT29 colon): 55.3 µM
- TGI (IGROV1 ovarian): > 100 µM
- TGI (K-562 leukemia): 81.4 µM
- TGI (KM12 colon): > 100 µM
- TGI (LOX IMVI melanoma): 43.9 µM
- TGI (M14 melanoma): 78.9 µM
- TGI (MALME-3M melanoma): 74.8 µM
- TGI (MCF7 breast): > 100 µM
- TGI (MDA-MB-231 breast): > 100 µM
- TGI (MDA-MB-435): 75.1 µM
- TGI (MDA-N): > 100 µM
- TGI (MOLT-4 leukemia): 65.3 µM
- TGI (NCI-H226 lung): 83.8 µM
- TGI (NCI-H23 lung): > 100 µM
- TGI (NCI-H460 lung): 64.3 µM
- TGI (NCI-H522 lung): 93.7 µM
- TGI (NCI/ADR-RES ovarian): 78.8 µM
- TGI (OVCAR-3 ovarian): > 100 µM
- TGI (OVCAR-4 ovarian): > 100 µM
- TGI (OVCAR-5 ovarian): > 100 µM
- TGI (OVCAR-8 ovarian): > 100 µM
- TGI (PC-3 prostate): > 100 µM
- TGI (RPMI-8226 leukemia): 45.2 µM
- TGI (RXF 393 renal): 45.1 µM
- TGI (SF-268 CNS): > 100 µM
- TGI (SF-295 CNS): > 100 µM
- TGI (SF-539 CNS): > 100 µM
- TGI (SK-MEL-2 melanoma): 47.4 µM
- TGI (SK-MEL-28 melanoma): > 100 µM
- TGI (SK-MEL-5 melanoma): 32.3 µM
- TGI (SK-OV-3 ovarian): > 100 µM
- TGI (SN12C renal): > 100 µM
- TGI (SNB-19 CNS): > 100 µM
- TGI (SNB-75 CNS): > 100 µM
- TGI (SR leukemia): 93.3 µM
- TGI (SW-620 colon): > 100 µM
- TGI (T-47D breast): > 100 µM
- TGI (TK-10 renal): 93.7 µM
- TGI (UACC-257 melanoma): 61.1 µM
- TGI (UACC-62 melanoma): > 100 µM
- TGI (UO-31 renal): > 100 µM

Structure (SMILES): CN(/N=C(\C(=O)O)c1ccccc1)C1=NCCN1
- TGI (786-0 renal): > 100 µM
- TGI (A498 renal): > 100 µM
- TGI (A549 NSCLC): > 100 µM
- TGI (ACHN renal): > 100 µM
- TGI (BT-549 breast): > 100 µM
- TGI (CAKI-1 renal): > 100 µM
- TGI (CCRF-CEM leukemia): > 100 µM
- TGI (COLO 205 colon): > 100 µM
- TGI (DU-145 prostate): > 100 µM
- TGI (EKVX NSCLC): > 100 µM
- TGI (HCC-2998 colon): > 100 µM
- TGI (HCT-116 colon): > 100 µM
- TGI (HCT-15 colon): > 100 µM
- TGI (HL-60(TB) leukemia): > 100 µM
- TGI (HOP-62 NSCLC): > 100 µM
- TGI (HOP-92 NSCLC): > 100 µM
- TGI (HS 578T breast): > 100 µM
- TGI (HT29 colon): > 100 µM
- TGI (IGROV1 ovarian): > 100 µM
- TGI (K-562 leukemia): > 100 µM
- TGI (KM12 colon): > 100 µM
- TGI (LOX IMVI melanoma): > 100 µM
- TGI (MALME-3M melanoma): > 100 µM
- TGI (MCF7 breast): > 100 µM
- TGI (MDA-MB-231 breast): > 100 µM
- TGI (MDA-MB-435): > 100 µM
- TGI (MDA-N): > 100 µM
- TGI (MOLT-4 leukemia): > 100 µM
- TGI (NCI-H226 lung): > 100 µM
- TGI (NCI-H23 lung): > 100 µM
- TGI (NCI-H460 lung): > 100 µM
- TGI (NCI-H522 lung): > 100 µM
- TGI (NCI/ADR-RES ovarian): > 100 µM
- TGI (OVCAR-3 ovarian): > 100 µM
- TGI (OVCAR-4 ovarian): > 100 µM
- TGI (OVCAR-5 ovarian): > 100 µM
- TGI (OVCAR-8 ovarian): > 100 µM
- TGI (PC-3 prostate): > 100 µM
- TGI (RPMI-8226 leukemia): > 100 µM
- TGI (RXF 393 renal): > 100 µM
- TGI (SF-268 CNS): > 100 µM
- TGI (SF-295 CNS): > 100 µM
- TGI (SF-539 CNS): > 100 µM
- TGI (SK-MEL-2 melanoma): > 100 µM
- TGI (SK-MEL-28 melanoma): > 100 µM
- TGI (SK-MEL-5 melanoma): > 100 µM
- TGI (SK-OV-3 ovarian): > 100 µM
- TGI (SN12C renal): > 100 µM
- TGI (SNB-75 CNS): > 100 µM
- TGI (SR leukemia): > 100 µM
- TGI (SW-620 colon): > 100 µM
- TGI (T-47D breast): > 100 µM
- TGI (TK-10 renal): > 100 µM
- TGI (UACC-257 melanoma): > 100 µM
- TGI (UACC-62 melanoma): > 100 µM
- TGI (UO-31 renal): > 100 µM
